According to PubChem BioAssay (NCI):
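GI50 is the concentration that inhibits growth by half. TGI marks complete inhibition of growth.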

Key:
Experiment in all cases: inhibition of tumour cell growth, NCI panel, 384-well format
[1] = tested on: HS 578T breast
[2] = tested on: MDA-MB-435 melanoma
[3] = tested on: SW-620 colon
[4] = tested on: HCT-15 colon
[5] = tested on: SK-MEL-5 melanoma
[6] = tested on: A549 NSCLC
[7] = tested on: MOLT-4 leukemia
[8] = tested on: MDA-MB-468 breast
[9] = tested on: MALME-3M melanoma
[10] = tested on: 786-0 renal
[11] = tested on: NCI-H23 lung
[12] = tested on: PC-3 prostate
[13] = tested on: RPMI-8226 leukemia
[14] = tested on: SNB-75 CNS
[15] = tested on: NCI-H226 lung
[16] = tested on: SR leukemia
[17] = tested on: RXF 393 renal
[18] = tested on: MDA-MB-231 breast
[19] = tested on: T-47D breast
[20] = tested on: SF-268 CNS
[21] = tested on: OVCAR-5 ovarian
[22] = tested on: HOP-62 NSCLC
[23] = tested on: U251 glioblastoma
[24] = tested on: COLO 205 colon
[25] = tested on: CCRF-CEM leukemia
[26] = tested on: SF-539 CNS
[27] = tested on: TK-10 renal
[28] = tested on: A498 renal
[29] = tested on: SF-295 CNS

SMILES: COc1cccc2c1ccc1nc3cccc(C(=O)N[C@H](C)CN(C)C)c3nc12
- GI50 [1]: 0.141 µM
- TGI [1]: 0.289 µM
- GI50 [2]: 0.106 µM
- TGI [2]: 0.229 µM
- GI50 [3]: 0.0299 µM
- TGI [3]: 0.29 µM
- GI50 [4]: 0.0413 µM
- TGI [4]: 0.187 µM
- GI50 [5]: 0.0353 µM
- TGI [5]: 0.0904 µM
- GI50 [6]: 0.0429 µM
- TGI [6]: 0.904 µM
- GI50 [7]: 0.0155 µM
- TGI [7]: 0.0291 µM
- GI50 [8]: 0.0238 µM
- TGI [8]: 0.0639 µM
- GI50 [9]: 0.0283 µM
- TGI [9]: 0.068 µM
- GI50 [10]: 0.0575 µM
- TGI [10]: 0.861 µM
- GI50 [11]: 0.0915 µM
- TGI [11]: 0.216 µM
- GI50 [12]: 0.142 µM
- TGI [12]: 0.603 µM
- GI50 [13]: 0.0271 µM
- TGI [13]: 0.0746 µM
- GI50 [14]: 0.111 µM
- TGI [14]: 0.238 µM
- GI50 [15]: 0.0734 µM
- TGI [15]: 0.34 µM
- TGI [16]: 0.0204 µM
- GI50 [17]: 0.111 µM
- TGI [17]: 0.242 µM
- GI50 [18]: 0.11 µM
- TGI [18]: 0.393 µM
- GI50 [19]: 0.117 µM
- TGI [19]: 0.315 µM
- GI50 [20]: 0.0635 µM
- TGI [20]: 0.228 µM
- GI50 [21]: 0.127 µM
- TGI [21]: 12.2 µM
- GI50 [22]: 0.056 µM
- TGI [22]: 0.231 µM
- GI50 [23]: 0.0578 µM
- TGI [23]: 0.311 µM
- GI50 [24]: 0.0128 µM
- TGI [24]: 0.0999 µM
- GI50 [25]: 0.0423 µM
- TGI [25]: 0.16 µM
- GI50 [26]: 0.0528 µM
- TGI [26]: 0.174 µM
- GI50 [27]: 0.0905 µM
- TGI [27]: 0.554 µM
- GI50 [28]: 0.0511 µM
- TGI [28]: 0.384 µM
- GI50 [29]: 0.0376 µM
- TGI [29]: 0.221 µM
